# Counter-ions that a name gives are not always drawn.
# Test system: leukotriene pathway in human whole blood (LTB4 levels)
# Assay: Human whole blood assay (A23187-stimulated LTB4)
# Assay type: cell-based
# Conditions: Homo sapiens, human whole blood diluted 1:1, A23187-stimulated; read-out: LTB4 IC50 1:1
# Procedure: The ability of the compounds of the present invention to treat a FLAP-mediated disease and/or disorder, or associated symptoms or complications thereof, was determined using the following procedures. Binding assay data represent the average value obtained from two different assay plates, with samples run in duplicate on each plate. Human whole blood assay data represent a single replicate on an assay plate using whole blood from at least one healthy donor.
# An in vitro cellular assay was performed using human whole blood collected in heparin-containing tubes, which was used to test the ability of compounds to modulate the leukotriene pathway in human whole blood. The blood was diluted 1:1 in RPMI medium, pre-incubated for 15 min at 37° Celsius with test compounds at various concentrations, and then stimulated with calcium ionophore, A23187 (7 μg/mL), for 30 min at 37° Celsius. The samples were then centrifuged and plasma was removed. The plasma was diluted in assay buffer and LTB4 levels were measured using a commercial kit (Enzo Life Sciences). The concentration of each compound that was required for half-maximal inhibition (modulation) of recombinant enzyme activity (IC50) was calculated by a 4-parameter equation using the program GraphPad Prism (GraphPad software).
row,Structure (SMILES),IC50 [nM]
1,"Fc1cc(-c2cccnc2OCC2CC2)ccc1-c1cnc2[nH]ccc2n1 [Example 400, 2-{4-[2-(Cyclopropylmethoxy)pyridin-3-yl]-2-fluorophenyl}-5H-pyrrolo[2,3-b]pyrazine]",729
2,"Nc1cnc(-c2ccc(-c3cccnc3OC3CCCCC3)cc2F)cn1 [Example 403, 5-{4-[2-(Cyclohexyloxy)pyridin-3-yl]-2-fluorophenyl}pyrazin-2-amine]",389
3,"N#Cc1nc(-c2ccc(-c3ccccc3S(=O)(=O)NCCO)cc2F)cnc1N [Example 413, 4′-(5-Amino-6-cyanopyrazin-2-yl)-3′-fluoro-N-(2-hydroxyethyl)biphenyl-2-sulfonamide]",448
4,"N#Cc1nc(-c2ccc(-c3ccccc3S(=O)(=O)N3CCNC(=O)C3)cc2F)cnc1N [Example 414, 3-Amino-6-{3-fluoro-2′-[(3-oxopiperazin-1-yl)sulfonyl]biphenyl-4-yl}pyrazine-2-carbonitrile]",120
5,"CC(C)(C)NS(=O)(=O)c1ccccc1-c1ccc(-c2ccc3[nH]ccc3c2)c(F)c1 [Example 421, N-tert-Butyl-3′-fluoro-4′-(1H-indol-5-yl)biphenyl-2-sulfonamide]",> 10000
6,"CC(C)(C)NS(=O)(=O)c1ccccc1-c1ccc(-c2cnc(N)c(F)c2)c(F)c1 [Example 430, 4′-(6-Amino-5-fluoropyridin-3-yl)-N-tert-butyl-3′-fluorobiphenyl-2-sulfonamide]",59
7,"Cc1nc(-c2ccc(-c3ccccc3S(N)(=O)=O)cc2F)cnc1N [Example 446, 4′-(5-Amino-6-methylpyrazin-2-yl)-3′-fluorobiphenyl-2-sulfonamide]",1370
8,"CC(C)(C)NS(=O)(=O)c1ccccc1-c1ccc(-c2cc(N)c3[nH]ccc3c2)c(F)c1 [Example 458, 4′-(7-Amino-1H-indol-5-yl)-N-tert-butyl-3′-fluorobiphenyl-2-sulfonamide]",53
9,"Nc1cnc(-c2ccc(-c3ccccc3S(N)(=O)=O)c(F)c2F)cn1 [Example 464, 4′-(5-Aminopyrazin-2-yl)-2′,3′-difluorobiphenyl-2-sulfonamide]",> 10000
10,"CC(C)(C)NS(=O)(=O)c1ccccc1-c1ccc(-c2cnc(N)nc2)c(F)c1F [Example 466, 4′-(2-Aminopyrimidin-5-yl)-N-tert-butyl-2′,3′-difluorobiphenyl-2-sulfonamide trifluoroacetic acid salt]",990
11,"CS(=O)(=O)c1cc(F)ccc1-c1ccc(-c2cnc3[nH]ccc3n2)c(F)c1 [Example 489, 2-[3,4′-Difluoro-2′-(methylsulfonyl)biphenyl-4-yl]-5H-pyrrolo[2,3-b]pyrazine]",307
12,"Nc1cnc(-c2ccc(-c3ccccc3Oc3ncccn3)cc2F)cn1 [Example 526, 5-[3-Fluoro-2′-(pyrimidin-2-yloxy)biphenyl-4-yl]pyrazin-2-amine]",19
13,"N#Cc1cc(Oc2ccccc2-c2ccc(-c3cnc(N)nc3)c(F)c2)ccn1 [Example 538, 4-{[4′-(2-Aminopyrimidin-5-yl)-3′-fluorobiphenyl-2-yl]oxy}pyridine-2-carbonitrile]",330
14,"Nc1cnc(-c2ccc(-c3ccc(C(F)(F)F)cc3Oc3ncccn3)cc2F)cn1 [Example 551, 5-[3-Fluoro-2′-(pyrimidin-2-yloxy)-4′-(trifluoromethyl)biphenyl-4-yl]pyrazin-2-amine]",21
15,"COc1cc(C(F)(F)F)ccc1-c1ccc(-c2cnc(N)cn2)c(F)c1 [Example 553, 5-[3-Fluoro-2′-methoxy-4′-(trifluoromethyl)biphenyl-4-yl]pyrazin-2-amine]",430
16,"Nc1nc(-c2ccc(-c3ccccc3S(=O)(=O)N3CCCC3)cc2F)cs1 [Example 579, 4-[3-Fluoro-2′-(pyrrolidin-1-ylsulfonyl)biphenyl-4-yl]-1,3-thiazol-2-amine]",1540
17,"Nc1cnc(-c2ccc(-c3ccccc3O[C@H]3CCCNC3)cc2F)cn1 [Example 634, 5-{3-Fluoro-2′-[(3S)-piperidin-3-yloxy]biphenyl-4-yl}pyrazin-2-amine]",1470
18,"C[C@@H]([C@@H](O)c1ccccc1)N(C)S(=O)(=O)c1ccccc1-c1ccc(-c2ccc(N)nc2)c(F)c1 [Example 666, 4′-(6-Aminopyridin-3-yl)-3′-fluoro-N-((1S,2S)-1-hydroxy-1-phenylpropan-2-yl)-N-methyl-[1,1′-biphenyl]-2-sulfonamide]",36.1

# Same assay, conditions: Homo sapiens, human whole blood diluted 1:1 in RPMI, A23187-stimulated LTB4; read-out: LTB4 IC50 1:1
row,Structure (SMILES),IC50 [nM]
1,"Nc1ncc(-c2ccc(-c3ccccc3S(=O)(=O)N3CCCC3)cc2F)cn1 [Example 298, 5-[3-Fluoro-2′-(pyrrolidin-1-ylsulfonyl)biphenyl-4-yl]pyrimidin-2-amine trifluoroacetic acid salt]",1170
2,"N#CC1CN(S(=O)(=O)c2ccccc2-c2ccc(-c3cnc(N)nc3)c(F)c2)C1 [Example 314, 1-((4′-(2-Aminopyrimidin-5-yl)-3′-fluoro-[1,1′-biphenyl]-2-yl)sulfonyl)azetidine-3-carbonitrile]",178
3,"Nc1ncc(-c2ccc(-c3ccccc3S(=O)(=O)Cc3nc(C4CC4)no3)cc2F)cn1 [Example 321, 5-(2′-{[(3-Cyclopropyl-1,2,4-oxadiazol-5-yl)methyl]sulfonyl}-3-fluorobiphenyl-4-yl)pyrimidin-2-amine]",8490
4,"CC(C)(C)OC(=O)N1CC(O)(CNS(=O)(=O)c2ccccc2-c2ccc(-c3ccc(N)nc3)c(F)c2)C1 [Example 357, tert-Butyl 3-((4′-(6-aminopyridin-3-yl)-3′-fluoro-[1,1′-biphenyl]-2-ylsulfonamido)methyl)-3-hydroxyazetidine-1-carboxylate]",1130
5,"NS(=O)(=O)c1ccccc1-c1ccc(-c2cnc3[nH]ccc3c2)c(F)c1 [Example 368, 3′-Fluoro-4′-(1H-pyrrolo[2,3-b]pyridin-5-yl)biphenyl-2-sulfonamide]",178
6,"O=S1(=O)CCN(S(=O)(=O)c2ccccc2-c2ccc(-c3cnc4[nH]ccc4n3)c(F)c2)CC1 [Example 382, 2-{2′-[(1,1-Dioxidothiomorpholin-4-yl)sulfonyl]-3-fluorobiphenyl-4-yl}-5H-pyrrolo[2,3-b]pyrazine]",11
7,"CSc1ccc(F)cc1-c1ccc(-c2cnc3[nH]ccc3n2)c(F)c1 [Example 383, 2-[3,5′-Difluoro-2′-(methylsulfanyl)biphenyl-4-yl]-5H-pyrrolo[2,3-b]pyrazine]",1630
8,"CCSc1ccccc1-c1ccc(-c2cnc3[nH]ccc3n2)c(F)c1 [Example 384, 2-[2′-(Ethylsulfanyl)-3-fluorobiphenyl-4-yl]-5H-pyrrolo[2,3-b]pyrazine]",82
9,"NC1CCN(S(=O)(=O)c2ccccc2-c2ccc(-c3cnc4c(c3)OCCN4)c(F)c2)CC1 [Example 389, 1-{[4′-(3,4-Dihydro-2H-pyrido[3,2-b][1,4]oxazin-7-yl)-3′-fluorobiphenyl-2-yl]sulfonyl}piperidin-4-amine]",137
10,"C[C@H](CO)NS(=O)(=O)c1ccccc1-c1ccc(-c2cnc3c(c2)OCCN3)c(F)c1 [Example 390, 4′-(3,4-Dihydro-2H-pyrido[3,2-b][1,4]oxazin-7-yl)-3′-fluoro-N-[(1R)-2-hydroxy-1-methylethyl]biphenyl-2-sulfonamide]",10

# Same assay, conditions: Homo sapiens, read-out: LTB4 IC50 1:1
row,Structure (SMILES),IC50 [nM]
1,"C[Si](C)(C)CCOCS(=O)(=O)c1ccccc1-c1ccc(-c2cnc(N)nc2)c(F)c1 [Example 338, 5-[3-Fluoro-2′-({[2-(trimethylsilyl)ethoxy]methyl}sulfonyl)biphenyl-4-yl]pyrimidin-2-amine formate salt]",1090
